This note sets out measurements from ChEMBL document CHEMBL1909046, “DrugMatrix in vitro pharmacology data”.

The target of series [1] is T1, Alpha-1B adrenergic receptor (Rattus norvegicus, UniProt P15823).
T1 sequence (P15823 whole entry): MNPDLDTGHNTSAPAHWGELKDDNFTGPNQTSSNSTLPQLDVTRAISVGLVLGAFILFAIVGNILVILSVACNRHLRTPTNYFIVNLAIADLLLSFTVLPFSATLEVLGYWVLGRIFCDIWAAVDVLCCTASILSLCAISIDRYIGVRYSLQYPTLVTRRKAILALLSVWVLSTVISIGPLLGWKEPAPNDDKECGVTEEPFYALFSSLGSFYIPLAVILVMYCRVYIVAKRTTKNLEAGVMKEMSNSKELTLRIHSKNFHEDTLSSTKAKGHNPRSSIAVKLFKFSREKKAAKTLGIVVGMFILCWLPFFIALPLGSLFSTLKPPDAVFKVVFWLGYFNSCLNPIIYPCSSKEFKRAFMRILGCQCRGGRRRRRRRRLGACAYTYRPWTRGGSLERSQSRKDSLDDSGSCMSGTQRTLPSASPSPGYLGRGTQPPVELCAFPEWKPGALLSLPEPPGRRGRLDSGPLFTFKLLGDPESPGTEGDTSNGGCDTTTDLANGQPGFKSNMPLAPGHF
Put plainly: DRUGMATRIX: Alpha-1B adrenergic receptor radioligand binding (ligand: prazosin). To be noted: Not Active = under 50% inhibition at 10 µM. It counts as cell membranes, Wistar, Liver, Membrane.

Series [2] in a line: DRUGMATRIX: Atrial Natriuretic Factor (ANF) radioligand binding (ligand: [125I] ANF (rat)). It counts as cell membranes, Cavia porcellus, Dunkin-Hartley, Adrenal gland, Membrane. The following applies: Not Active = under 50% inhibition at 10 µM.
Another series deals with T2, Substance-K receptor (Homo sapiens, UniProt P21452).
T2 sequence (P21452 whole entry): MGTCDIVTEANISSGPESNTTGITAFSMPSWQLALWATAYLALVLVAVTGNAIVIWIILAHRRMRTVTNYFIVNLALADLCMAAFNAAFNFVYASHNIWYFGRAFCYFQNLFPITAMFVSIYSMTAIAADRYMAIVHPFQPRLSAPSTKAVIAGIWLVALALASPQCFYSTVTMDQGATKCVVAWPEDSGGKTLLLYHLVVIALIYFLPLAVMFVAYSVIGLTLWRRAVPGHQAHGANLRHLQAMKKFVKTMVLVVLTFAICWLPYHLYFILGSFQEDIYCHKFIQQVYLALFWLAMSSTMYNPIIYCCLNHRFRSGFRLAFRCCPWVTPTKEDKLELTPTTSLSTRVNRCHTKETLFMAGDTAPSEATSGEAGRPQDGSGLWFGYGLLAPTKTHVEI
Type of series: cell membranes, CHO, Membrane. The following applies: cho.

For a further series, the target named is Vasopressin V1a receptor (Homo sapiens, UniProt P37288). Type of series: cell membranes, Membrane. The following applies: hek293. Also: in other assays of this panel Not Active means under 50% inhibition at 10 µM.
Series [3] has as its target T3, 5-hydroxytryptamine receptor 1A (Rattus norvegicus, UniProt P19327). Also: in other assays of this panel Not Active means under 50% inhibition at 10 µM.
T3 sequence (P19327 whole entry): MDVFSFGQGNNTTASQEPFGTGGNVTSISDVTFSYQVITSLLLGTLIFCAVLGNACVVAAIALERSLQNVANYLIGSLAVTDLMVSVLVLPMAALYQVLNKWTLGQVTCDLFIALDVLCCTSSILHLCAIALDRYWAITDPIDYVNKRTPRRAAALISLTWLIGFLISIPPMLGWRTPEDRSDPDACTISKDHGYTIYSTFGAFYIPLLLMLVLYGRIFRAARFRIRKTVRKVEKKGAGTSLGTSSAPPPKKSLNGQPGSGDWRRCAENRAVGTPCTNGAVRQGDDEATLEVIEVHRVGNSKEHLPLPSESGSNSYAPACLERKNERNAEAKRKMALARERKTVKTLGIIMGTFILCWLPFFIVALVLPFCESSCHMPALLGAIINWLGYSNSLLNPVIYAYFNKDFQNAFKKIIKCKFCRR
It counts as cell membranes, CHO-K1, Membrane. The following applies: for Ki: read-out: Ki.

In another series the target is Cytochrome P450 2C9 (Homo sapiens, UniProt P11712). The following applies: bti-tn-5b1-4. Also: in other assays of this panel Not Active means under 50% inhibition at 10 µM.
In the next series the target is T4, Glucocorticoid receptor (Homo sapiens, UniProt P04150). Also: in other assays of this panel Not Active means under 50% inhibition at 10 µM.
T4 sequence (P04150 whole entry): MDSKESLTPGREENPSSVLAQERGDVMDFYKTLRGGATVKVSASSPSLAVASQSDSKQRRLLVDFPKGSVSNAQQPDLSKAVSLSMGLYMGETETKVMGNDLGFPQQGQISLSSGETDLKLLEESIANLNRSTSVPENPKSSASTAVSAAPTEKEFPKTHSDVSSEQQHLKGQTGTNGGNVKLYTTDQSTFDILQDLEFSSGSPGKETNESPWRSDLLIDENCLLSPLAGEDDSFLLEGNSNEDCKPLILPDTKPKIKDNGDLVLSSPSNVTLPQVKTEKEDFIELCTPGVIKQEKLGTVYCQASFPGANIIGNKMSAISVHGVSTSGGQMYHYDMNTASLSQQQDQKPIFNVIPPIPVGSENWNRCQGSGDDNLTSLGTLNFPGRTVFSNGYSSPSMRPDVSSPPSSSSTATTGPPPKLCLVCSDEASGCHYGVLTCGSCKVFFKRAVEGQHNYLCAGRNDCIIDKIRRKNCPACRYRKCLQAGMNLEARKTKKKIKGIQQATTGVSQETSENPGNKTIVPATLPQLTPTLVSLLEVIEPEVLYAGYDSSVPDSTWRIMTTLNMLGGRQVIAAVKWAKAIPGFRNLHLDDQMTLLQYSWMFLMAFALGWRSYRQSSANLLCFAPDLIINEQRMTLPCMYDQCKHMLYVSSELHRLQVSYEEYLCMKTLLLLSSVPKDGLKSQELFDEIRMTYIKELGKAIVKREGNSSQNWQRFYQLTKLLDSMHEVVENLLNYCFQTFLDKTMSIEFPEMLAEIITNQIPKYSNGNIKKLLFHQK
To be noted: hela s3.

The term IC50 denotes the midpoint of a concentration-inhibition curve. One may read the Ki as a measure of affinity in units of concentration, obtained from inhibition or displacement.

SMILES strings stand for the structures.

Chain of Vasopressin V1a receptor (P37288 whole entry): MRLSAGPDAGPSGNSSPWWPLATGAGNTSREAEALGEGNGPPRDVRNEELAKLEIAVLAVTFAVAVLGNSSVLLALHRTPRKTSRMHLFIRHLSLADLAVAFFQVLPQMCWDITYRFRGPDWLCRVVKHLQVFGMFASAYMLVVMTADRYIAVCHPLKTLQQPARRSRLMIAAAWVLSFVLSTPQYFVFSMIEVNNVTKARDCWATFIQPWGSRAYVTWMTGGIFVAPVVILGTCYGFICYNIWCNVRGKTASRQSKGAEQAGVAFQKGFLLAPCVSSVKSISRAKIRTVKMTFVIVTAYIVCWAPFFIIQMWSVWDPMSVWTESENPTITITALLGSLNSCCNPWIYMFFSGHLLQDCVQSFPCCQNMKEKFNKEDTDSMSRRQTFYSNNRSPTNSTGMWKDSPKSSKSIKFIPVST
Chain of Cytochrome P450 2C9 (P11712 whole entry): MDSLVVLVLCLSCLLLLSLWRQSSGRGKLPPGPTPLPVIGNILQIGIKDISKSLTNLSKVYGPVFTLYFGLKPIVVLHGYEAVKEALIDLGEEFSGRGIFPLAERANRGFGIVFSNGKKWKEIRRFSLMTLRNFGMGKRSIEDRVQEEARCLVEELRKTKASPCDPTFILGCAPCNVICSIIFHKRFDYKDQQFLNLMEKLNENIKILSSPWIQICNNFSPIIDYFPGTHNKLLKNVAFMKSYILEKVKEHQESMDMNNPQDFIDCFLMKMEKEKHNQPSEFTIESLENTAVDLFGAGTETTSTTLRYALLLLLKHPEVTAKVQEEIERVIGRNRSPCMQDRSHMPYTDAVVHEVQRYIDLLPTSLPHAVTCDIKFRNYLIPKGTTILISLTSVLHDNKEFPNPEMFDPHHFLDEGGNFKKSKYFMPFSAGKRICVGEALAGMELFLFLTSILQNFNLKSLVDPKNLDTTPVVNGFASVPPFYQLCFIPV

In the case of `CC(C)(C)c1ccc(S(=O)(=O)/C=C/C#N)cc1` [BAY-11-7085], the IC50 result (in series [1]; in series [2]; at Substance-K receptor; against Vasopressin V1a receptor; in series [3] (cho-k1); on Cytochrome P450 2C9) was “Not Active” each time. The IC50 result at Glucocorticoid receptor is listed as “Not Active”. Besides, the Ki result (in series [2]; at Cytochrome P450 2C9) was “Not Active” each time.
As to `CC(C)C[C@H]1C(=O)N2CCC[C@H]2[C@]2(O)O[C@](NC(=O)[C@@H]3C=C4c5cccc6[nH]c(Br)c(c56)C[C@H]4N(C)C3)(C(C)C)C(=O)N12` [BROMOCRIPTINE], the IC50 in series [1] (read-out: IC50) was 3.55 nM; in series [2], “Not Active”; at Substance-K receptor, “Not Active”; on Vasopressin V1a receptor, “Not Active”; in series [3] (read-out: IC50) it was 5.64 nM; at Cytochrome P450 2C9, “Not Active”. For the same compound, at Glucocorticoid receptor, the IC50 entry is given as “Not Active”. The Ki is 1.96 nM in series [1] (read-out: Ki), “Not Active” in series [2], 3.22 nM in series [3] and “Not Active” at Cytochrome P450 2C9.
As to `O=C(/C=C/c1ccc(O)c(O)c1)OCCc1ccccc1` [CAFFEIC ACID PHENETHYL ESTER], the IC50 entry (in series [1]; in series [2]; against Substance-K receptor; on Vasopressin V1a receptor; in series [3] (cho-k1); against Cytochrome P450 2C9) was “Not Active” in each case. Moreover, the IC50 result against Glucocorticoid receptor is given as “Not Active”. Also, the Ki entry (in series [2]; at Cytochrome P450 2C9) was “Not Active” each time.
On to `COc1cc(CNC(=O)CCCC/C=C/C(C)C)ccc1O` [CAPSAICIN], for which the IC50 result (in series [1]; in series [2]; against Substance-K receptor; at Vasopressin V1a receptor; in series [3] (cho-k1); on Cytochrome P450 2C9) was “Not Active” throughout. In addition, at Glucocorticoid receptor, the concentration for half-maximal inhibition (IC50) result is “Not Active”. Besides, the Ki entry (in series [2]; at Cytochrome P450 2C9) was “Not Active” in each case.
Take `CCOC(=O)n1ccn(C)c1=S` [CARBIMAZOLE]: the IC50 entry (in series [1]; in series [2]; against Substance-K receptor; on Vasopressin V1a receptor; in series [3] (cho-k1); on Cytochrome P450 2C9) was “Not Active” in each case. For the same compound, the IC50 result at Glucocorticoid receptor is listed as “Not Active”. Further, the Ki entry (in series [2]; on Cytochrome P450 2C9) was “Not Active” each time.
For `Oc1ccccc1O` [CATECHOL], the IC50 result (in series [1]; in series [2]; against Substance-K receptor; against Vasopressin V1a receptor; in series [3] (cho-k1); against Cytochrome P450 2C9) was “Not Active” throughout. In addition, the IC50 result against Glucocorticoid receptor was “Not Active”. Moreover, the Ki result (in series [2]; at Cytochrome P450 2C9) was “Not Active” in each case.
In the case of `CO[C@@]1(NC(=O)CSCC#N)C(=O)N2C(C(=O)O)=C(CSc3nnnn3C)CS[C@@H]21` [CEFMETAZOLE], the IC50 result (in series [1]; in series [2]; against Substance-K receptor; against Vasopressin V1a receptor; in series [3] (cho-k1); against Cytochrome P450 2C9) was “Not Active” throughout. The concentration for half-maximal inhibition (IC50) result against Glucocorticoid receptor is “Not Active”. The Ki entry (in series [2]; at Cytochrome P450 2C9) was “Not Active” each time.
As to `CN(C(=O)CCCOc1ccc2[nH]c(=O)ccc2c1)C1CCCCC1` [CILOSTAMIDE], the IC50 entry (in series [1]; in series [2]; at Substance-K receptor; at Vasopressin V1a receptor; in series [3] (cho-k1); against Cytochrome P450 2C9) was “Not Active” in each case. The concentration for half-maximal inhibition (IC50) entry at Glucocorticoid receptor is reported as “Not Active”. For the same compound, the Ki result (in series [2]; at Cytochrome P450 2C9) was “Not Active” in each case.
`CC(C)(Oc1ccc(C2CC2(Cl)Cl)cc1)C(=O)O` (centres undefined) [CIPROFIBRATE]: the half-inhibitory concentration (IC50) result (in series [1]; in series [2]; on Substance-K receptor; against Vasopressin V1a receptor; in series [3] (cho-k1); against Cytochrome P450 2C9) was “Not Active” each time. Besides, the IC50 result against Glucocorticoid receptor is “Not Active”. For the same compound, the Ki entry (in series [2]; at Cytochrome P450 2C9) was “Not Active” in each case.
For `Nc1nc(Cl)nc2c1ncn2[C@H]1C[C@H](O)[C@@H](CO)O1` [CLADRIBINE], the IC50 entry (in series [1]; in series [2]; against Substance-K receptor; against Vasopressin V1a receptor; in series [3] (cho-k1); at Cytochrome P450 2C9) was “Not Active” in each case. Moreover, on Glucocorticoid receptor, the IC50 entry is on record as “Not Active”. Also, the Ki entry (in series [2]; at Cytochrome P450 2C9) was “Not Active” throughout.
Regarding `CC[C@H]1OC(=O)[C@H](C)[C@@H](O[C@H]2C[C@@](C)(OC)[C@@H](O)[C@H](C)O2)[C@H](C)[C@@H](O[C@@H]2O[C@H](C)C[C@H](N(C)C)[C@H]2O)[C@](C)(OC)C[C@@H](C)C(=O)[C@H](C)[C@@H](O)[C@]1(C)O` [CLARITHROMYCIN], the IC50 result (in series [1]; in series [2]; at Substance-K receptor; on Vasopressin V1a receptor; in series [3] (cho-k1); at Cytochrome P450 2C9) was “Not Active” in each case. For the same compound, at Glucocorticoid receptor, the IC50 result is on record as “Not Active”. For the same compound, the Ki entry (in series [2]; at Cytochrome P450 2C9) was “Not Active” each time.
Turning to `O=P1(N(CCCl)CCCl)NCCCO1` (centres undefined) [CYCLOPHOSPHAMIDE ANHYDROUS], the half-inhibitory concentration (IC50) entry (in series [1]; in series [2]; at Substance-K receptor; at Vasopressin V1a receptor; in series [3] (cho-k1); at Cytochrome P450 2C9) was “Not Active” throughout. For the same compound, the IC50 entry against Glucocorticoid receptor was “Not Active”. Moreover, the Ki entry (in series [2]; on Cytochrome P450 2C9) was “Not Active” in each case.
On to `Nc1nc(N)nc(NC2CC2)n1` [CYROMAZINE], for which the IC50 entry (in series [1]; in series [2]; against Substance-K receptor; against Vasopressin V1a receptor; in series [3] (cho-k1); against Cytochrome P450 2C9) was “Not Active” each time. Besides, on Glucocorticoid receptor, the IC50 result is “Not Active”. The Ki entry (in series [2]; on Cytochrome P450 2C9) was “Not Active” throughout.
Take `CCN[C@@H](C)Cc1cccc(C(F)(F)F)c1` [DEXFENFLURAMINE]: the IC50 entry in series [1] is “Not Active”; in series [2], “Not Active”; against Substance-K receptor, “Not Active”; at Vasopressin V1a receptor, “Not Active”; in series [3] (read-out: IC50) it was 3400 nM; against Cytochrome P450 2C9, “Not Active”. The IC50 entry against Glucocorticoid receptor is “Not Active”. The figures for the Ki entry (in series [2]; in series [3]; on Cytochrome P450 2C9) were “Not Active”, 1940 nM and “Not Active”, respectively.
